For this test, the system named is SK-OV-3 cells. The experiment in a line: Effect of compounds on tryptophan catabolism in SK-OV-3 cell line (inhibition of kynurenine production, LC-MS/MS). Format: cell-based. Conditions: SK-OV-3 cell line, 24 h incubation, kynurenine in supernatant by LC-MS/MS, read-out: IC50 Ranges (ic50 values for inhibition of Kynurenine production). As for the experimental part: SK-OV-3 cells are seeded in 96-well plates in McCoy's 5A medium supplemented with 10% FBS and incubated overnight at 37° C., 5% CO2, 95% humidity. The […] growth medium is replaced with DMEM F-12 medium supplemented with 6 mg/mL L-tryptophan. Compounds are added to the wells and incubated for 24 h at 37° C., 5% CO2, 95% humidity. Compounds are tested at 8 consecutive 3-fold dilutions starting from 30 μM in duplicate. At the end of incubation, concentration of kynurenine in cell supernatants is […] determined by LC-MS/MS. In parallel, cell viability is assessed by measurement of ATP using CellTiter Glo assay (Promega), according to manufacturer's protocol. Inhibition of Kyn production is calculated using the following formula: […] IC50 ranges for compounds of the invention are presented in Table 2, whereby the IC50 ranges are as follows: • A: […]

Read-outs that look alike come from different tables or passages of the source.

With `Cc1ccc(CN(C(=O)Nc2ccc(C#N)cc2)C23CC(C2)C3)o1` [Compound 285, 1-(1-bicyclo[1.1.1]pentanyl)-3-(4-cyanophenyl)-1-[(5-methyl-2-furyl)methyl]urea], where the note is “Homo sapiens, SK-OV-3, 24 h”, the IC50 lay within 100 to 500 nM. In the case of `Cc1ccc(CN(C(=O)Nc2ccccc2C#N)C2CCCC2)o1` [Compound 95, 3-(2-cyanophenyl)-1-cyclopentyl-1-[(5-methyl-2-furyl)methyl]urea], the IC50 (Homo sapiens, SK-OV-3, 24 h) lay within 1000 to 5000 nM.

Turning to `N#CCc1ccc(NC(=O)N(Cc2cccs2)C2CCCC2)cc1` [Compound 6, 3-[4-(cyanomethyl)phenyl]-1-cyclopentyl-1-(2-thienylmethyl)urea], the IC50 (Homo sapiens, SK-OV-3, 24 h) lay within 1000 to 5000 nM. For `COc1ccc(NC(=O)N(Cc2cccs2)C2CCCC2)c(OC)c1` [Compound 18, 1-cyclopentyl-3-(2,4-dimethoxyphenyl)-1-(2-thienylmethyl)urea], the IC50 (Homo sapiens, SK-OV-3, 24 h) lay in the range of 1000 to 5000 nM. As for `COc1ccc(N(Cc2cccs2)C(=O)NC2CCCCC2)cc1` [Compound 202, 3-cyclohexyl-(4-methoxyphenyl)-1-(2-thienylmethyl) urea], the IC50 (Homo sapiens, SK-OV-3, 24 h) fell in the range of 1000 to 5000 nM. For `Cc1ccc(C(C)N(C(=O)Nc2ccc(C#N)cc2)C2CCCC2)o1` (racemic) [Compound 190, 3-(4-cyanophenyl)-1-cyclopentyl-1-[1-(5-methyl-2-furyl)ethyl]urea], the IC50 (Homo sapiens, SK-OV-3, 24 h) is 100 to 500 nM. Regarding `Cc1oncc1N(Cc1ccnc(C(F)(F)F)c1)C(=O)Nc1ccc(C#N)cc1` [Compound 288, 3-(4-cyanophenyl)-1-(5-methylisoxazol-4-yl)-1-[[2-(trifluoromethyl)-4-pyridyl]methyl]urea], for the setting “Homo sapiens, SK-OV-3, 24 h”, the IC50 lay in the range of 1000 to 5000 nM. With `C#Cc1ccc(NC(=O)N(Cc2ccc(C)o2)C2CCOCC2)cc1` [Compound 259, 3-(4-ethynylphenyl)-1-[(5-methyl-2-furyl)methyl]-1-tetrahydropyran-4-yl-urea], under “Homo sapiens, SK-OV-3, 24 h”, the IC50 lay within 100 to 500 nM. As for `Cc1ncc(CN(C(=O)Nc2ccc(C#CCO)cc2)c2conc2C)o1` [Compound 321, 3-[4-(3-hydroxyprop-1-ynyl)phenyl]-1-(3-methylisoxazol-4-yl)-1-[(2-methyloxazol-5-yl)methyl]urea], the IC50 (Homo sapiens, SK-OV-3, 24 h) lay within 1000 to 5000 nM. On the same count and under the same terms, then `O=C(Nc1ccccc1)N(Cc1ccccn1)C1CCCCC1` [Compound 32, 1-cyclohexyl-3-phenyl-1-(2-pyridylmethyl)urea], with above 5000 nM; and `N#Cc1ccc(NC(=O)N(Cc2ccc3nsnc3c2)C2CCC2)cc1` [Compound 255, 1-(2,1,3-benzothiadiazol-5-ylmethyl)-3-(4-cyanophenyl)-1-cyclobutyl-urea], with 100 to 500 nM. `N#Cc1cncc(CN(C(=O)Nc2ccc(Cl)cc2)C2CCCC2)c1` [Compound 115, 3-(4-chlorophenyl)-1-[(5-cyano-3-pyridyl)methyl]-1-cyclopentyl-urea]: for the setting “Homo sapiens, SK-OV-3, 24 h”, the IC50 was 100 to 500 nM.

As for `Cc1ccc(CN(C(=O)NCCc2ccccc2)C2CCCC2)o1` [Compound 181, 1-cyclopentyl-1-[(5-methyl-2-furyl)methyl]-3-(2-phenylethyl)urea], the IC50 (Homo sapiens, SK-OV-3, 24 h) was 1000 to 5000 nM.

In the case of `N#Cc1cc(CN(C(=O)NCCc2ccccc2)C2CCCC2)ccc1F` [Compound 51, 1-[(3-cyano-4-fluoro-phenyl)methyl]-1-cyclopentyl-3-(2-phenylethyl)urea], where the note is “Homo sapiens, SK-OV-3, 24 h”, the IC50 is above 5000 nM. Consider `N#Cc1ccc(NC(=O)N(Cc2ccc3scnc3c2)C2CCC2)cc1` [Compound 261, 1-(1,3-benzothiazol-5-ylmethyl)-3-(4-cyanophenyl)-1-cyclobutyl-urea], for which, where the note is “Homo sapiens, SK-OV-3, 24 h”, the IC50 was below 100 nM. On to `Cc1ccc(CN(C(=O)Nc2ccc(-c3cnn(C(=O)OC(C)(C)C)c3)cc2)C2CCCC2)o1` [Compound 99, tert-butyl 4-[4-[[cyclopentyl-[(5-methyl-2-furyl)methyl]carbamoyl]amino]phenyl]pyrazole-1-carboxylate], for which the IC50 (Homo sapiens, SK-OV-3, 24 h) is 500 to 1000 nM. As to `Cc1ccc(CN(C(=O)Nc2ccc(Cl)cc2)C2CCC(F)(F)C2)o1` (centres unmarked) [Compound 245, 3-(4-chlorophenyl)-1-(3,3-difluorocyclopentyl)-1-[(5-methyl-2-furyl)methyl]urea], where the note is “Homo sapiens, SK-OV-3, 24 h”, the IC50 lay in the range of 100 to 500 nM. Regarding `O=C(Nc1ccc(F)c(F)c1)N(Cc1cccs1)C1CCCC1` [Compound 4, 1-cyclopentyl-3-(3,4-difluorophenyl)-1-(2-thienylmethyl)urea], the IC50 (Homo sapiens, SK-OV-3, 24 h) fell in the range of 500 to 1000 nM.

Regarding `Cn1ncc(CN(C(=O)Nc2ccccc2)C2CCCC2)c1Cl` [Compound 41, 1-[(5-chloro-1-methyl-pyrazol-4-yl)methyl]-1-cyclopentyl-3-phenyl-urea], under “Homo sapiens, SK-OV-3, 24 h”, the IC50 lay in the range of 1000 to 5000 nM. Regarding `O=C(Nc1ccncc1)N(Cc1cccc(C(F)(F)F)c1)C1CCCC1` [Compound 88, 1-cyclopentyl-3-(4-pyridyl)-1-[[3-(trifluoromethyl)phenyl]methyl]urea], the IC50 (Homo sapiens, SK-OV-3, 24 h) fell in the range of 500 to 1000 nM. Still for that read-out and setting: the value for `Cc1ccc(CN(C(=O)Nc2ccc(Cl)cc2)[C@H]2C[C@H](F)C2)o1` [Compound 273, 3-(4-chlorophenyl)-1-(3-fluorocyclobutyl)-1-[(5-methyl-2-furyl)methyl]urea] was 100 to 500 nM; that for `Cc1ncc(CN(C(=O)Nc2ccc(C#N)cc2)c2conc2C)o1` [Compound 316, 3-(4-cyanophenyl)-(3-methylisoxazol-4-yl)-1-[(2-methyloxazol-5-yl)methyl]urea] was above 5000 nM; that for `N#Cc1cccc(CN(C(=O)Nc2ccccc2)C2CCCC2)n1` [Compound 125, 1-[(6-cyano-2-pyridyl)methyl]-1-cyclopentyl-3-phenyl-urea] was 1000 to 5000 nM. Consider `Cc1ccc(CN(C(=O)Nc2ccc(C#N)cc2)c2conc2C)o1` [Compound 278, 3-(4-cyanophenyl)-1-[(5-methyl-2-furyl)methyl]-1-(3-methylisoxazol-4-yl)urea], for which the IC50 (Homo sapiens, SK-OV-3, 24 h) is below 100 nM. As for `O=C(Nc1ccccc1)N(Cc1cccs1)C1CCCC1` [Compound 195, 1-cyclopentyl-3-phenyl-1-(2-thienylmethyl)urea], the IC50 lay in the range of 100 to 500 nM.

With `CC(c1cccc(C#N)c1)N(C(=O)Nc1ccccc1)C1CCCC1` (racemic) [Compound 186, 1-[1-(3-cyanophenyl)ethyl]-1-cyclopentyl-3-phenyl-urea], where the note is “Homo sapiens, SK-OV-3, 24 h”, the IC50 is 100 to 500 nM. Regarding `O=C(Nc1ccc(Cl)cc1)N(Cc1ccon1)C1CCCC1` [Compound 149, 3-(4-chlorophenyl)-1-cyclopentyl-1-(isoxazol-3-ylmethyl)urea], the IC50 (Homo sapiens, SK-OV-3, 24 h) was 500 to 1000 nM.

Consider `O=C(Nc1ccc(Cl)cc1)N(Cc1ccn2ccnc2n1)C1CCC1` [Compound 275, 3-(4-chlorophenyl)-1-cyclobutyl-1-(imidazo[1,2-a]pyrimidin-7-ylmethyl)urea], for which the IC50 (Homo sapiens, SK-OV-3, 24 h) lay in the range of 1000 to 5000 nM. Regarding `COc1ccc(CN(C(=O)Nc2ccc(F)c(F)c2)C2CCCC2)cc1C` [Compound 47, 1-cyclopentyl-3-(3,4-difluorophenyl)-1-[(4-methoxy-3-methyl-phenyl)methyl]urea], the IC50 (Homo sapiens, SK-OV-3, 24 h) is 100 to 500 nM. `O=C(Nc1cccs1)N(c1ccccc1)C1CCCC1` [Compound 58, 1-cyclopentyl-1-phenyl-3-(2-thienyl)urea]: the IC50 (Homo sapiens, SK-OV-3, 24 h) fell in the range of 1000 to 5000 nM. In the case of `O=C(Nc1ccc(F)cc1)N(Cc1cccs1)C1CCCC1` [Compound 34, 1-cyclopentyl-3-(4-fluorophenyl)-1-(2-thienylmethyl)urea], the IC50 (Homo sapiens, SK-OV-3, 24 h) is 100 to 500 nM. Still for that read-out and setting: then `Cc1ccc(NC(=O)N(Cc2cccs2)C2CCCC2)c(C)c1` [Compound 5, 1-cyclopentyl-3-(2,4-dimethylphenyl)-1-(2-thienylmethyl)urea], with 1000 to 5000 nM.

One may read the IC50 as the concentration that gives 50% inhibition.

The record behind these values is patent publication US20210238139A1, “MODULATORS OF TRYPTOPHAN CATABOLISM” (E-Therapeutics PLC, priority 2018, published 2021).
